In US20090104196A1, “Antibodies For Use in Identifying and/or Scoring Prostate Cancer and Androgen Receptor-Dependent Gene Expression Control” (priority 2005, published 2009):
Entries after “also recorded” stand apart in the source; their conditions may differ.

Legend:
[1] = molecular target: T1, LSD1 (Homo sapiens, UniProt O60341); assay: Chromatin immunoprecipitation (ChIP) of histone methylation marks at the PSA promoter in LNCaP cells; assay type: cell-based
T1 construct: endogenous in cells; host or cells: LNCaP cells
Description: ChIP experiments were performed essentially as described^14. […] LNCaP cells were transfected three days before harvesting for ChIP with or without siRNA (Qiagen) following the manufacture's instructions. Immunoprecipitation was performed with specific antibodies (α-monoMeK9H3, α-diMeK9H3, α-triMeK9H3, α-monoMeK4H3, α-diMeK4H3, α-triMeK4H3, α-H3 (abcam), α-LSD1, and α-AR PG21 (Upstate Biotechnology) on GammaBind TMSepharose 4B (GE-Healthcare). For PCR, 1-5 μl out of 50 μl DNA extract was used. For Re-ChIP assays, immunoprecipitations were sequentially washed with TSE I, TSE II, buffer III, and TE^14. Complexes were eluted by incubation with 10 mM DTT at 37° C. for 30 min, diluted 50 times with dilution buffer^14 followed by a second immunoprecipitation with the indicated antibody. Primer sequences were as follows: exon 4, PSA (+3909/+4067) 5′-[…]-3′ and 5′-[…]-3′; middle, PSA (−2223/−1951) 5′-[…]-3′ and 5′-[…]-3′; PCR primers for ARE I+II (PSA (−459/−121)) and ARE III (PSA ([…])), GAPDH, and U6 have been previously described^7, 15, 16.

[2] = system: LSD1-induced activation of AR; assay: Transient transfection AR-dependent luciferase reporter assay in 293 cells (LSD1 + AR co-expression); assay type: cell-based; settings: R1881, 3×10^−3 M pargyline, 1×10^−3 M deprenyl, or 1×10^−4 M clorgyline for 18 hours, FIG. 4c
Description: (§1) 293 and CV-1 cells were cultured and transfected as described^12. LNCaP cells were cultured in phenol-red-free RPMI1640 supplemented with 10% double-stripped fetal calf serum (dsFCS) and transfected with Effectene (Qiagen). The following amounts per well were used: MMTV-LUC, ARE2X-TATA-LUC, ARE2X-TK-LUC, TK-LUC, TREp-LUC, β-RE-LUC, ERE2X-TATA-LUC, PSA-LUC, Slp-ARU-TATA-LUC 500 ng each, 25 ng expression plasmids for AR, PR, ERα, RARα, and TRβ; 500 to 700 ng expression plasmids for LSD1 1-174, LSD1 175-246, LSD1 247-852, LSD1Δ281-360, LSD1ΔAO, pSUPER-control, and pSUPER-LSD1; 100 to 700 ng expression plasmids for LSD1 were transfected per well. […] Luciferase activity was assayed as described^9. All experiments were repeated at least five times in duplicate.

[3] = system: other nuclear receptors (PR, ERα, RARα, TRβ); assay: Reporter assays for other nuclear hormone receptors in 293 cells; assay type: cell-based; settings: pargyline, FIG. 10k
Description: as §1

[4] = system: PSA gene; assay: qRT-PCR of endogenous PSA gene expression in LNCaP cells; assay type: cell-based, human; settings: pargyline, FIG. 4d
Description: DNAsel-treated RNA isolated using RNAwiz (Ambion) was used for reverse transcription. Quantitative PCR was performed in an ABI PRISM 7700 sequence detector. Product formation was detected by incorporation of SYBR Green I using ROX as a passive reference (ABgene). The expression ratios of the analyzed cDNAs were related to the normalized Cp of the housekeeping gene GAPDH in control and sample. The following primers were used: GAPDH: 5′-[…]-3′; 5′-[…]-3′; PSA: 5′-[…]-3′; 5′-[…]-3′. Statistical analysis for qPCR was performed by group-wise comparison based on PCR efficiencies and the mean crossing point deviation between sample and control group using Relative Expression Software Tool^19. Experiments were repeated and analysed three times.

[5] = R1881, PSA promoter, pargyline, FIG. 8

Row | SMILES | demethylation of mono- and dimethyl H3-K9 during androgen-induced transcription ([1]; R1881, PSA promoter (ARE I+II), pargyline 18 hours, FIG. 3b) | methylation levels of trimethyl H3-K9 ([1]; R1881, PSA promoter, pargyline, FIG. 3b) | methylation status of H3-K27 [1, 5] | methylation status of H4-K20 [1, 5] | methylation of histone H3 at lysine 4 (H3-K4) ([1]; in vivo ChIP, pargyline, FIG. 3b) | LSD1-induced activation of AR [2] | activity of other nuclear receptors [3] | androgen-induced expression of the endogenous PSA gene [4] | androgen-induced expression of the endogenous PSA gene ([4]; listed as Pargyline)
1 | C#CCN(C)Cc1ccccc1 [pargyline, N-methyl-N-2-propynylbenzylamine] | blocks | remain unchanged | remain unchanged | remain unchanged | not influenced | severely impair | does not influence; also recorded: fails to block | blocks | reduces
2 | C#CCN(C)CCCOc1ccc(Cl)cc1Cl [clorgyline, N-methyl-N-propargyl-3-(2,4-dichlorophenoxy-)propylamine] |  |  |  |  |  | severely impair |  |  | 
3 | C#CCN(C)[C@H](C)Cc1ccccc1 [deprenyl, (R)-(−)-N,2-dimethyl-N-2-propynylphenethylamine] |  |  |  |  |  | severely impair |  |  | 
